Measurements as given in patent US20150126519A1, “ANTIBIOTIC COMPOUNDS AND COMPOSITIONS, AND METHODS FOR IDENTIFICATION THEREOF” (Fred Hutchinson Cancer Research Center, priority 2012, published 2015).

Biological target: H. pylori AddAB (Helicobacter pylori, UniProt O25052+O26077)
Test: AddAB helicase (DNA unwinding) assay
Type: biochemical
Conditions: FIG. 10, compound 50 μM
Procedure: DNA unwinding by AddAB enzyme was assayed in the presence of compound (50 μM). Unwinding is indicated by the amount of ss DNA (heavy arrow).
Helicase assays measured the formation of ss DNA from 5′ [^32P] pBR322 X^+^F (or X^o control) DNA (0.1 nM molecules) linearized by digestion with HindIII enzyme. AddAB assays were in 25 mM Tris-acetate (pH 7.5), 2.0 mM Mg(OAc)2, 5 mM ATP, 1.5 μM SSB and used 1 nM enzyme. RecBCD assays used the same conditions but with 0.15 nM enzyme and without SSB. Compounds were added to the reaction mixture containing all the reagents except ATP; final DMSO concentration was 2.5% for each assay. Reactions were started by addition of ATP and were at 37° C. for 1 min (RecBCD) or 2 min (AddAB). Reactions were stopped by addition of ⅓ vol of stop buffer (2.5% SDS, 100 mM EDTA, 0.125% bromophenol blue, 0.125% xylene cyanol FF, and 10% Ficoll), and the products subjected to electrophoresis in a 1.25% agarose gel at 5 V/cm for 2.5 h in TAE buffer (40 mM Tris base, 20 mM acetic acid, 1 mM EDTA). Gels were dried under vacuum, and the products detected by autoradiography or analyzed with a Typhoon Trio PhosphorImager (GE Lifesciences) and ImageQuant TL software (Amersham). With RecBCD, this assay also detects cutting of DNA at the Chi site X^+^F, which produces a 1.46 kb fragment (Smith, G. R.; Kunes, S. M.; Schultz, D. W.; Taylor, A.; Triman, K. L., Cell 1981, 24, 429-436).

H. pylori AddAB, sequence (O25052 entry or part of it): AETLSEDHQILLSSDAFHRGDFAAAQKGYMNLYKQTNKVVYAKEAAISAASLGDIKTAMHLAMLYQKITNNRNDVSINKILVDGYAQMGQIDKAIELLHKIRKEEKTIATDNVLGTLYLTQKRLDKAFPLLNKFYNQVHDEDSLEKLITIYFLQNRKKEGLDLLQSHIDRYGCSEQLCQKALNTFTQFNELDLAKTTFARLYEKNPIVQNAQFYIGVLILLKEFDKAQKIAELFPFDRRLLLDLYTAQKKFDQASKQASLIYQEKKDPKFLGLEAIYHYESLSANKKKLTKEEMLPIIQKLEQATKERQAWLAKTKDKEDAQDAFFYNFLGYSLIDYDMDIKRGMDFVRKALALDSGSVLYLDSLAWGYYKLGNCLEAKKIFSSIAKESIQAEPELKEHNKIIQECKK
H. pylori AddAB, sequence (O26077 entry or part of it): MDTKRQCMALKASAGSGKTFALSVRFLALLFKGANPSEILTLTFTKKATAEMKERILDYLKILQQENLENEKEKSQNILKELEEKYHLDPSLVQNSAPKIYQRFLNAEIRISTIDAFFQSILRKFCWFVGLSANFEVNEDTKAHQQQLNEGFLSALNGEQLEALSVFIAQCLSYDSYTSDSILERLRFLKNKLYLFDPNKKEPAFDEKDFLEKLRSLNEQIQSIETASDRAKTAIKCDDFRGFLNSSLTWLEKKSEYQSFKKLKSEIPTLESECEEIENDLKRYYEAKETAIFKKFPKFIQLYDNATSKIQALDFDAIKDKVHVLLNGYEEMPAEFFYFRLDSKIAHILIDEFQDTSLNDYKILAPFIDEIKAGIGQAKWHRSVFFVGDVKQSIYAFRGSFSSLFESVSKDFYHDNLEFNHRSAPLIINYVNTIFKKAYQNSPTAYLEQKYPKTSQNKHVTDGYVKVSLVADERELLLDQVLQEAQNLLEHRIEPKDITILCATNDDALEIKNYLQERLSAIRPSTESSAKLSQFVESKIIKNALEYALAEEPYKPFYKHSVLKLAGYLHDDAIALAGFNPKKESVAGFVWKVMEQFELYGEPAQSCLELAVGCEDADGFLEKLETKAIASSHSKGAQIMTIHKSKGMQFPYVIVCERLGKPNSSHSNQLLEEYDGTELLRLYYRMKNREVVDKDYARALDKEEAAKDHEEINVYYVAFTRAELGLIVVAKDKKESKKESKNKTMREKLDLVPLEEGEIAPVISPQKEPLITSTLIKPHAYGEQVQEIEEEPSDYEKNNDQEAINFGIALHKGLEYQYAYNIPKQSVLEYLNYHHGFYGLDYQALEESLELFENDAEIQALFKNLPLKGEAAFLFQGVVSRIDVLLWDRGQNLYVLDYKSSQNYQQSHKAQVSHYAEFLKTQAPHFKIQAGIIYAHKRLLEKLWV

SMILES: CCn1cc(C(=O)O)c(=O)c2cnc(N3CCN(C(=S)Nc4cccc(C(F)(F)F)c4)CC3)nc21 [Compound 3]
- inhibition of AddAB unwinding (helicase) activity (in words): neither compound inhibited AddAB unwinding activity
